US20100003679A1, “ASSESSMENT OF CELLULAR COMPOSITION AND FRACTIONAL VIABILITY AND USES THEREOF” (University of Miami, priority 2006, published 2010)

Columns and labels:
Format in all cases: cell-based
[1] = tested on: β-cells (NG bright) of human islets; assay: β-cell apoptosis after delivery of noxious stimuli (TMRE staining in NG bright subset, FACS); conditions: SNP 0.5 mM 18 h, H2O2 200 μM 18 h, IL-1β 50 U/ml alone or with TNF-α 1000 U/ml and IFN-γ 1000 U/ml 24 h, vs absence of stimulus
Method: Determination of fractional β-cell viability. For assessment of apoptosis, single cell suspensions were incubated with 1 μM Newport Green PDX acetoxymethylether (NG; Molecular Probes) and 100 ng/ml of tetramethylrhodamine ethyl ester (TMRE; Molecular Probes) for 30 min at 37° C. in PBS without Ca^2+ and Mg^2+. Newport Green allows for the definition of cell subsets according to zinc content (18). TMRE selectively binds to mitochondrial membranes, allowing for detection of apoptosis (that results in decreased staining) (19-20). After washing, cells were stained with 7-aminoactinomycin D (7-AAD; Molecular Probes), which binds to DNA when cell membrane permeability is altered after cell death. Cell suspensions were analyzed (minimum 3.0×10^4 events) using a FACScan cytometer (Becton Dickinson, Mountain View, Calif.) with the CellQuest software.
Delivery of pro-apoptotic stimuli to islet cells: Islets were treated with selected compounds to induce apoptosis. The nitric oxide (NO) donor sodium nitroprusside (Baxter Healthcare Corporation, Deerfield, Ill.) was used at 0.5 mM for 18 hours. Hydrogen peroxide (H2O2; Sigma) was used at 200 μM for 18 hours. IL-1-β (50 U/ml) alone or in combination with TNF-α (1000 U/ml) and IFN-γ (1000 U/ml) was used for 24 hours. […]

[2] = tested on: β-cells (NG bright) of human islets; assay: Simultaneous β-cell/PDC viability by FACS after noxious stimuli: β-cell subset; conditions: human islet cells, 24 h; SNAP 0.5 mM; H2O2 200 μM; IL-1β 50 U/ml + TNF-α 1,000 U/ml + IFN-γ 1,000 U/ml; vs absence of stimulus
Method: (§1) Assessment of PDC-specific viability: Single cell suspensions were incubated for 30 min at 37° C. in phosphate buffered saline (PBS) without Ca^2+ and Mg^2+ with Newport Green PDX acetoxymethylether (NG; […]) and tetramethylrhodamineethylester (TMRE; 100 ng/ml; both from Molecular Probes). Cells were incubated with anti-CA19-9 antibody (1:100) for 15 min followed by goat anti-mouse antibody (Alexa-647). After washing, cells were stained with 7-aminoactinomycin D (7-AAD; Molecular Probes), a marker of cell death. Cell suspensions were analyzed (minimum 3.0 104 events) using a FACScan cytometer with the CellQuest-pro software (Becton Dickinson, Mountain View, Calif.). We have evaluated apoptosis selectively in the NG^bright and CA19-9+ cells according to the scheme in FIGS. 19A-E. After counting, dead cells (7-AAD+) were excluded from further analysis, live β-cells (NG^bright) and PDC (CA19-9^+) were analyzed for mitochondrial membrane potential (TMRE), which allows discriminating between healthy (TMRE^+) and apoptotic (TMRE^−) cells. […]

[3] = tested on: PDC (CA19-9+ ductal cells) of human islet preparations; assay: Simultaneous β-cell/PDC viability by FACS after noxious stimuli: ductal cell subset; conditions: 24 h, SNAP 0.5 mM, H2O2 200 μM, IL-1β 50 U/ml + TNF-α 1,000 U/ml + IFN-γ 1,000 U/ml, vs absence of stimulus
Method: as §1

Compound	percentage of apoptotic β-cells (TMRE−, NG bright) [1]	apoptosis by TMRE staining in β-cell subset [2]	apoptosis by TMRE staining in ductal cell (PDC) subset [3]
IL-1β: cytokine used as pro-apoptotic stimulus on islets	increase in the percentage of apoptotic β-cells		
CC(=O)NC(C(=O)O)C(C)(C)SN=O (racemic) [SNAP, S-Nitroso-N-acetyl-DL-penicillamine]		increased apoptosis	increased apoptosis
OO [H2O2, Hydrogen peroxide]	increase in the percentage of apoptotic β-cells	increased apoptosis	increased apoptosis
